Data set [1] deals with T1, Sodium channel protein type 9 subunit alpha (Homo sapiens, UniProt Q15858). The data set is described as follows: Inhibition of human NaV1.7 channel by patch clamp electrophysiology assay.
In data set [2] the target is Sodium channel protein type 2 subunit alpha (Rattus norvegicus, UniProt P04775). Nature of the data set: Inhibition of rat NaV1.2 channel.
Data set [3] concerns the target Sodium channel protein type 3 subunit alpha (Rattus norvegicus, UniProt P08104). The data set is described as follows: Inhibition of rat NaV1.3 channel.
For data set [4], the target named is Sodium channel protein type 4 subunit alpha (Rattus norvegicus) (UniProt P15390). The data set is described as follows: Inhibition of rat NaV1.4 channel at 1 uM relative to control.
In data set [5] the target is NaV1.5 (sodium channel protein type 5 subunit alpha) (Rattus norvegicus, UniProt P15389). Nature of the data set: Inhibition of rat NaV1.5 channel at 1 uM relative to control.
A short description of data set [6]: Toxicity in mouse. The format is organism-based. Conditions: in vivo.
Data set [7] deals with Sodium channel protein type 3 subunit alpha (Homo sapiens, UniProt Q9NY46). Nature of the data set: Inhibition of human TTX-sensitive NaV1.3 channel expressed in HEK293 cells by patch clamp electrophysiology assay. The format is cell-based.
In data set [8] the target is Sodium channel protein type 1 subunit alpha (Homo sapiens, UniProt P35498). The data set is described as follows: Inhibition of human NaV1.1 channel by patch clamp electrophysiology assay.
The target in data set [9] is Sodium channel protein type 2 subunit alpha (Homo sapiens, UniProt Q99250). The data set is described as follows: Inhibition of human NaV1.2 channel by patch clamp electrophysiology assay.
The target of data set [10] is Sodium channel protein type 4 subunit alpha (Homo sapiens, UniProt P35499). Nature of the data set: Inhibition of human NaV1.4 channel by patch clamp electrophysiology assay.
In data set [11] the target is Sodium channel protein type 5 subunit alpha (Homo sapiens, UniProt Q14524). The data set is described as follows: Inhibition of human NaV1.5 channel expressed in HEK293 cells by patch clamp electrophysiology assay. The format is cell-based.
The target of data set [12] is Sodium channel protein type 8 subunit alpha (Homo sapiens, UniProt Q9UQD0). Nature of the data set: Inhibition of human NaV1.6 channel by patch clamp electrophysiology assay.
Data set [13] concerns the target Sodium channel protein type 10 subunit alpha (Homo sapiens, UniProt Q9Y5Y9). Nature of the data set: Inhibition of human NaV1.8 channel by patch clamp electrophysiology assay.
The target of data set [14] is T1, Sodium channel protein type 9 subunit alpha. Nature of the data set: Inhibition of human NaV1.7 channel expressed in HEK293 cells by patch clamp electrophysiology assay. The format is cell-based.
Data set [15] shares this target. The data set is described as follows: Inhibition of human NaV1.7 channel expressed in HEK293 cells treated for 120 secs by QPatch assay. The format is cell-based.
Data set [16] has the same target. Nature of the data set: Inhibition of human NaV1.7 channel expressed in HEK cells by patch clamp electrophysiology assay. The format is cell-based, HEK293.
In data set [17] the target is Sodium channel protein type 9 subunit alpha (Rattus norvegicus, UniProt O08562). Nature of the data set: Inhibition of rat NaV1.7 channel by two-electrode voltage-clamp method.
For data set [18], the target named is Sodium channel protein type 1 subunit alpha (Mus musculus, UniProt A2APX8). Nature of the data set: Inhibition of mouse NaV1.1 channel by two-electrode voltage-clamp method.
The nature of data set [19]: Inhibition of mouse NaV1.2 channel by two-electrode voltage-clamp method.
For data set [20], the target named is Sodium channel protein type 4 subunit alpha (Mus musculus, UniProt Q9ER60). Nature of the data set: Inhibition of mouse NaV1.4 channel by two-electrode voltage-clamp method.
Data set [21] has as its target Sodium channel protein type 8 subunit alpha (Mus musculus, UniProt Q9WTU3). Nature of the data set: Inhibition of mouse NaV1.6 channel by two-electrode voltage-clamp method.
In data set [22] the test system is Mus musculus. The data set is described as follows: Toxicity in mouse administered 15 to 20 mins. The format is organism-based. To be noted: in vivo.
Data set [23] in a line: Selectivity ratio of IC50 for rat NaV1.2 channel expressed in Xenopus laevis oocytes to IC50 for mouse NaV1.6 channel expressed in Xenopus laevis oocytes. The class given is cell-based.
Data set [24] in a line: Selectivity ratio of IC50 for rat NaV1.3 channel expressed in Xenopus laevis oocytes to IC50 for mouse NaV1.6 channel expressed in Xenopus laevis oocytes. The class given is cell-based.
Data set [25] can be described thus: Selectivity ratio of IC50 for rat NaV1.4 channel expressed in Xenopus laevis oocytes to IC50 for mouse NaV1.6 channel expressed in Xenopus laevis oocytes. The class given is cell-based.
A short description of data set [26]: Selectivity ratio of IC50 for human NaV1.7 channel expressed in Xenopus laevis oocytes to IC50 for mouse NaV1.6 channel expressed in Xenopus laevis oocytes. The format is cell-based.

This note sets out measurements from ChEMBL document CHEMBL3616397, “Voltage-Gated Sodium Channels: Structure, Function, Pharmacology, and Clinical Indications” (J Med Chem, 2015).

T1 sequence (Q15858 whole entry): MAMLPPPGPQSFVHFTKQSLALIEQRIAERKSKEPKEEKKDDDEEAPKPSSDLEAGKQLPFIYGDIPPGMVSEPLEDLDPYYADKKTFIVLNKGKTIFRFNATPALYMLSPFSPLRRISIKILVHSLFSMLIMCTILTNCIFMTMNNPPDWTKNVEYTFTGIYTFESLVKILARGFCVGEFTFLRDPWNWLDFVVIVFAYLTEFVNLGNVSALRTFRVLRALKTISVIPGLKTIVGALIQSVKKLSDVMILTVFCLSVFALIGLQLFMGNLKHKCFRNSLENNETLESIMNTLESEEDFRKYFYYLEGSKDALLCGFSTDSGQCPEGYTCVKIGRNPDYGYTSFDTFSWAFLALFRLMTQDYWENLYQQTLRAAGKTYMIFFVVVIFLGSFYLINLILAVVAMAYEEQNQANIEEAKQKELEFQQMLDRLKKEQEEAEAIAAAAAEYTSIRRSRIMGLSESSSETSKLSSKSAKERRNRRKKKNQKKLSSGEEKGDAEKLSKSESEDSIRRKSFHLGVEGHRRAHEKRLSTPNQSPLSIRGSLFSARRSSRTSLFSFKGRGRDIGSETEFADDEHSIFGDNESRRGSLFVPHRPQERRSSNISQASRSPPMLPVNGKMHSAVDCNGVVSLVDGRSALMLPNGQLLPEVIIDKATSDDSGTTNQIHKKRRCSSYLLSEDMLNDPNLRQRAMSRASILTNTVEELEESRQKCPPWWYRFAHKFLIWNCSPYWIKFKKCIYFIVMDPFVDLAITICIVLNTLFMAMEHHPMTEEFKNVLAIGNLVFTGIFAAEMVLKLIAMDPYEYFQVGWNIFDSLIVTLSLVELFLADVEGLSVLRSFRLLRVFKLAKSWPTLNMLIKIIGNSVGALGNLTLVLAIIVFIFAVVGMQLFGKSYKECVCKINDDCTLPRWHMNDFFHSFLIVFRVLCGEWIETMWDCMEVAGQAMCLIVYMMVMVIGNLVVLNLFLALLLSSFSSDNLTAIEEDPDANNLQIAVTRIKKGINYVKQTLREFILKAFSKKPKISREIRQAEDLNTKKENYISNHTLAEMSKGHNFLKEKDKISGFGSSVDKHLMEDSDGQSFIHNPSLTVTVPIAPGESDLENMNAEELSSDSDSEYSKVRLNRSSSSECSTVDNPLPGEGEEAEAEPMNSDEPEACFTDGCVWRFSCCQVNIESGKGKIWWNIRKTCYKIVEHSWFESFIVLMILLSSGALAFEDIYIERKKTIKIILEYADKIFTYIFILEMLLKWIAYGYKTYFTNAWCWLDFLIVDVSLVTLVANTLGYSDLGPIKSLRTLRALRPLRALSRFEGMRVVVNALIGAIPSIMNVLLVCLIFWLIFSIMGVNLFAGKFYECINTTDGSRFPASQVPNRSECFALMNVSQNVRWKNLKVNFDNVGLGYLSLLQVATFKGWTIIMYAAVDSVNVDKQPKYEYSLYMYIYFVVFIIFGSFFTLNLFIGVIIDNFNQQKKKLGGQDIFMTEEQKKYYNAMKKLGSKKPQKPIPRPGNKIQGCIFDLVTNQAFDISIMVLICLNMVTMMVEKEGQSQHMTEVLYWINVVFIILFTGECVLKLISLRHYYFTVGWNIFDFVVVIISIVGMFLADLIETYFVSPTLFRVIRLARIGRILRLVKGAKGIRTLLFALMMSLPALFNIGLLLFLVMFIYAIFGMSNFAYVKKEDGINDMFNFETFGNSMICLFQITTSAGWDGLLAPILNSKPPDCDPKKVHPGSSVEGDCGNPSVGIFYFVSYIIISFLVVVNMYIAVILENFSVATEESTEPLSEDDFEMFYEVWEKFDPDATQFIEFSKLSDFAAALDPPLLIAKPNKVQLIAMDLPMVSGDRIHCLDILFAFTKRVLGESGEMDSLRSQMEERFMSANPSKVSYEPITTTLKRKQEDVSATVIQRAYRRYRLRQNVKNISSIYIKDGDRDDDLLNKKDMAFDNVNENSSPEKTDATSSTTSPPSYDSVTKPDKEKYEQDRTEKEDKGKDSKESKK
Chain of Sodium channel protein type 5 subunit alpha (Q14524 whole entry): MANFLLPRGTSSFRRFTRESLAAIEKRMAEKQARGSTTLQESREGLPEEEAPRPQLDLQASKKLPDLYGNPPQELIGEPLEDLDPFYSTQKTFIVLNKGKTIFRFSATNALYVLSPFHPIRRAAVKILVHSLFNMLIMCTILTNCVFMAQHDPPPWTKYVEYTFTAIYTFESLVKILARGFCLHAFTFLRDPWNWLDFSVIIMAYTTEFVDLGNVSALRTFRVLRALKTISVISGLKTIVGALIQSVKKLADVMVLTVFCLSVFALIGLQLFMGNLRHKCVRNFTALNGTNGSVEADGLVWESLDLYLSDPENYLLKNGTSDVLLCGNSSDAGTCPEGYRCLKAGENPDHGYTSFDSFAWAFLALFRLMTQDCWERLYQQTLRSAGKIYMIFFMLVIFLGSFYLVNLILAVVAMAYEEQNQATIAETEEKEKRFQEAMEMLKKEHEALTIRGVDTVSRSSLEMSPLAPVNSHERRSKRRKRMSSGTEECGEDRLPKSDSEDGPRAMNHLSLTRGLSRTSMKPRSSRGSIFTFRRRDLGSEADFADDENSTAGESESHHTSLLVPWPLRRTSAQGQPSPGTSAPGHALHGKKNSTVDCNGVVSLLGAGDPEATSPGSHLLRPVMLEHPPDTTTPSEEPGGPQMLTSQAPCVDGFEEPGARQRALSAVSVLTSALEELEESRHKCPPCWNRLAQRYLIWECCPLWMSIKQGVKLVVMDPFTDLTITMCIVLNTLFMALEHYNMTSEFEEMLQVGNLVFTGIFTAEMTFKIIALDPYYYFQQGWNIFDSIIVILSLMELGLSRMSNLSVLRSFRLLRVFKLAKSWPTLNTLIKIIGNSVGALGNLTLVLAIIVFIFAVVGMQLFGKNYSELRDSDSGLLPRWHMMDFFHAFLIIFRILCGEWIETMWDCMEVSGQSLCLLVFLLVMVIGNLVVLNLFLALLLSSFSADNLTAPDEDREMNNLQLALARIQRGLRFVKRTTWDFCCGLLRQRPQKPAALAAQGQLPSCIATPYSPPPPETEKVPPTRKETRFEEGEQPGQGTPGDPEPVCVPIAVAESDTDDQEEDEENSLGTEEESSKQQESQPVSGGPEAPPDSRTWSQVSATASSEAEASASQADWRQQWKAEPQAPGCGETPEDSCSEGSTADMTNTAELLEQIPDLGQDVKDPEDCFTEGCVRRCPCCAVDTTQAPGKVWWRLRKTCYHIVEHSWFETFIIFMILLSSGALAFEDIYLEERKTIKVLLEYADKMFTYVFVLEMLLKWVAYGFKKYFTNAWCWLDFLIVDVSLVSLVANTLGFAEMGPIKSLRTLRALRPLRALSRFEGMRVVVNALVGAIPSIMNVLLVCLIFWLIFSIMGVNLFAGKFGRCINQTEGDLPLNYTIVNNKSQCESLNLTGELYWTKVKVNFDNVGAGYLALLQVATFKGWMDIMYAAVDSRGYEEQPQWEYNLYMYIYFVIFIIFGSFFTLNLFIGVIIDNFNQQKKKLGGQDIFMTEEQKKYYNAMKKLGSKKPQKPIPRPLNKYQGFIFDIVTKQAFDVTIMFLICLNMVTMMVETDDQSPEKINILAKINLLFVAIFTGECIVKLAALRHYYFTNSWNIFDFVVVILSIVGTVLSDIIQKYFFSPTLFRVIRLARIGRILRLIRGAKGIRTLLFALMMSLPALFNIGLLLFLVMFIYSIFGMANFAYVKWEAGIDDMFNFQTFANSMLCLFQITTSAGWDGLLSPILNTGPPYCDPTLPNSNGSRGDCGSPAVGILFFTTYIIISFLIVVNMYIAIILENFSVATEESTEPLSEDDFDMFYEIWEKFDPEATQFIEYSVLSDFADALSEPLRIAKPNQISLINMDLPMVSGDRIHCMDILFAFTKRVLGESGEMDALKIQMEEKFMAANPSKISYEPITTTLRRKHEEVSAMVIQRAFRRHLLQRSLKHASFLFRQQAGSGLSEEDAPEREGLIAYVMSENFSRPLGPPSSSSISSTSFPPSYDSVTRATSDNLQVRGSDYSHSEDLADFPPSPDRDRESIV

On to `CC[C@H](C)[C@H](NC(=O)[C@H](CCC(=O)O)NC(=O)[C@H](Cc1ccc(O)cc1)NC(=O)[C@H](CCCCN)NC(=O)[C@H](CS)NC(=O)[C@H](Cc1c[nH]c2ccccc12)NC(=O)[C@H](CCCNC(=N)N)NC(=O)[C@H](Cc1cnc[nH]1)NC(=O)[C@H](CCCCN)NC(=O)[C@H](CCCNC(=N)N)NC(=O)[C@H](CO)NC(=O)[C@H](CS)NC(=O)[C@@H](NC(=O)[C@H](CC(C)C)NC(=O)[C@H](CC(N)=O)NC(=O)[C@H](CO)NC(=O)[C@H](CO)NC(=O)[C@H](CCCCN)NC(=O)[C@H](CS)NC(=O)[C@H](CS)NC(=O)[C@H](CCC(N)=O)NC(=O)[C@H](CC(=O)O)NC(=O)[C@H](CC(N)=O)NC(=O)[C@H](CO)NC(=O)[C@@H]1CCCN1C(=O)[C@H](CC(N)=O)NC(=O)[C@H](CS)NC(=O)CNC(=O)[C@H](CCCCN)NC(=O)CNC(=O)[C@H](Cc1ccccc1)NC(=O)CNC(=O)[C@H](CC(C)C)NC(=O)[C@H](CS)NC(=O)[C@@H](N)CCC(=O)O)C(C)C)C(N)=O`, for which the concentration for half-maximal inhibition (IC50) in data set [1] was determined as 21 nM; in [2] it was 36 nM; in [3] it was 375 nM. In addition, in data set [4], the inhibition was determined as 7.3%. For the same compound, the inhibition at 1 µM in data set [5] amounted to 0%.

In turn, `COc1ccc(C(=O)O[C@H]2CC[C@@]3(C)[C@@H]4CC[C@H]5[C@]6(O)C[C@H](O)[C@@]7(O)[C@@H](CN8C[C@@H](C)CC[C@H]8[C@@]7(C)O)[C@]6(O)C[C@@]53O[C@]24O)cc1OC` [VERATRIDINE] showed an LD50 in data set [6] of 9 mg/kg.

As for `O=C(Nc1ccc(S(=O)(=O)Nc2nccs2)cc1)C(c1ccccc1)c1ccccc1`, the IC50 in data set [7] is < 20 nM; in data set [8], < 20 nM; in data set [9], 240 nM; in data set [10] it was > 10000 nM; in data set [11], > 10000 nM; in data set [12], > 10000 nM. Moreover, the IC50 in [13] and in data set [14] was > 10000 nM in each case.

As for `CN1CC[C@]2(CC[C@@H](c3cc(-c4cccc(OC(F)(F)F)c4)ccn3)N2)C1=O`, inhibition in data set [15] was half-maximal at 251 nM (IC50).

Take `Cc1ccc(OCC(C)C)c(-c2cccc([C@@H]3CC[C@]4(CCN(C)C4=O)N3)c2F)c1`: the half-inhibitory concentration (IC50) in data set [15] is 251 nM.

As to `CCCOc1ncccc1-c1cc(C(=O)NS(C)(=O)=O)ccc1Oc1ccc(Cl)cc1`, the IC50 in data set [16] amounted to 14 nM.

`N=C(N)NCCC[C@@H]1NC(=O)[C@H](CO)NC(=O)[C@H](Cc2cnc[nH]2)NC(=O)[C@H](CC(=O)O)NC(=O)[C@H](CCCNC(=N)N)NC(=O)[C@@H]2CSSC[C@H](N)C(=O)N[C@H]3CSSC[C@H](NC1=O)C(=O)N[C@H](C(=O)O)CSSC[C@H](NC(=O)[C@H](CC(N)=O)NC3=O)C(=O)N[C@@H](CO)C(=O)N[C@@H](CO)C(=O)N[C@@H](CCCCN)C(=O)N[C@@H](Cc1c[nH]c3ccccc13)C(=O)N2`: the results for the Kd in [17], in data set [18] and in data set [19] were 290 nM, 290 nM and 5 nM, respectively. For the same compound, the values for the IC50 in data set [20] and in data set [21] were 90 nM and 240 nM, respectively.

Turning to `CC1=CN=C(C)C1C(=O)O[C@@H](C)C1=CC[C@@]23OCCN(C)C[C@@]12C[C@@H](O)[C@]12O[C@@]4(O)CC[C@@]1(C)[C@H](CC=C32)C4` (stereo partly specified), the LD50 in [22] amounted to 0.002 mg/kg.

In the case of `O=S(=O)(Nc1ncns1)c1cc(F)c(OC[C@@H]2CNCC[C@H]2c2ccc(Cl)c(F)c2)cc1F`, the IC50 in [11] was > 10000 nM.

Consider `Nc1nc2cc(-c3cc(Cl)ccc3Oc3cc(F)c(S(=O)(=O)Nc4ncns4)cc3F)ccc2[nH]1`, for which the IC50 in data set [11] was > 10000 nM; in data set [14], 30 nM.

In turn, `Cc1cc(-c2ccc(C(F)(F)F)cc2)nc([C@@H]2CC[C@]3(CCN(C)C3=O)N2)n1` showed an IC50 in data set [15] of 2000 nM.

Turning to `N=C1N[C@H]2OC3C4(N1)C2[C@H]1O[C@]3(O)OC([C@H]4O)[C@]1(O)CO`, the Ratio IC50 turned out to be 161 in [23], 44 in data set [24], 127 in data set [25] and 163 in data set [26].
